The source of these data is patent US8877799B2, “Inorganic salt complexes of vildagliptin” (Egis Gyogyszergynar Nyilvanosan Muekoedoe Reszvenytarsasag, priority 2009, dated 2014).

One data set can be described thus: compressibility. It counts as physicochemical.
For data set [1] the following is noted: in water, after three days; pages 44 to 45 of WO 2007019255; cited from earlier work.

Turning to “Vildagliptin Calcium(II)-Chloride Trihydrate Complex (1:1:3)”, in “compressibility”, the “compressibility compared with vildagliptin base” value is “compressed significantly more preferably than the vildagliptin base”.

For the compound `N#C[C@@H]1CCCN1C(=O)CNC12CC3CC(CC(O)(C3)C1)C2` [vildagliptin base, 1-[2-(3-hydroxyadamant-1-yl-amino)acetyl]pyrrolidin-(2S)-carbonitrile], the active ingredient detectable in data set [1] is reported as 7.5%.
